Here are results for five molecules from patent publication US9440980B2, “Remedy for diabetes” (EA Pharma Co., Ltd., priority 2007, dated 2016).

Assay [1] deals with isolated adipocytes. Nature of the assay: Measurement of glucose uptake activity in isolated rat adipocytes (2-[14C]-deoxy-D-glucose). Format: cell-based. To be noted: Adipocyte, glucose uptake of insulin (100 nM) = 100%. Here is the method:
A male Wistar rat was decapitated and exsanguinated, and then a paratesticular adipose tissue was resected therefrom after laparotomy. The tissue was cut in a KRH (Krebs-Ringer HEPES: 130 mM NaCl, 4.7 mM KCl, 1.2 mM KH2PO4, 1.2 mM MgSO4, 1 mM CaCl2, 25 mM HEPES) containing a BSA (bovine serum albumin), a collagenase (type I) was added thereto, and the resultant was subjected to a digestive treatment for about 40 minutes to obtain isolated adipocytes. The buffer was replaced to remove the collagenase, and a 2% BSA/KRH solution was added thereto, whereby the adipocytes were floated again to obtain a adipocytes suspension.
The glucose uptake activity of a test substance compound was evaluated in accordance with Non-Patent Document 14: Simpson et al., Annual Review of Biochemistry, 55, 1059, (1986). Thus, 200 μl of the adipocytes suspension was dispensed into each polystyrene test tube, 100 μl of a solution containing the test substance compound was added thereto, and the test tube was shaken and incubated at 37° C. for 30 minutes. The glucose uptake activity was evaluated by measuring the amount of 2-[^14C(U)]-deoxy-D-glucose uptaken per unit time. Thus, the 2-[^14C(U)]-deoxy-D-glucose was added to the preincubated adipocytes suspension at the final concentration of 0.5 μCi/sample, and after 5 minutes, cytochalasin B was added thereto at the final concentration of 10 μM to stop the glucose uptake. Dinonyl phthalate was superposed over the solution, the resultant was centrifuged to separate the fat cells from the buffer, and the amount of the 2-[^14C(U)]-deoxy-D-glucose contained in the fat cell layer was measured by a liquid scintillation counter, whereby the uptaken glucose amount was determined. The glucose uptake of insulin (100 nM) was evaluated in the same manner and considered to be 100%, and thus the EC50 value of each compound was obtained.

For assay [2], the target named is T1, Gβ1γ2-Myc (Homo sapiens, UniProt P62873).
T1 construct: made in house; host or cells: Sf21 insect cells (baculovirus), unpurified Triton X-100 extract
Nature of the assay: Gβ binding ability using Gβ-expressing insect cell extract solution (PD10 method). To be noted: binding strength Compound 1>Compound 3>Compound 6, FIG. 8. Here is the method: The PD10 method was carried out as follows. To a microtube were added 250 μl of an RBA buffer, 100 μl of an RBA buffer containing 0 or 500 μM of the unlabeled Compound 1, 100 μl of the above extract solution, and 50 μl of an RBA buffer containing 2.5 μM of the ^3H-labeled Compound 1 successively, and the resultant mixture was stirred and left at room temperature for 1 hour. The entire reaction solution (0.5 ml) was added to a PD10 column sufficiently substituted with the RBA buffer, 2 ml of the RBA buffer was passed through the PD10 column, and thereafter further eluate by 1.5 ml of the RBA buffer was collected as a high-molecular fraction containing the protein, 15 ml of a liquid scintillator was added thereto, and the amount of the ^3H-labeled Compound 1 contained in the high-molecular fraction was measured by a scintillation counter. The count of the sample added with the unlabeled Compound 1 at the final concentration of 100 μM was considered to correspond to the nonspecific binding, the difference between the nonspecific binding count and the count of the sample not added with the unlabeled Compound 1 was considered to correspond to the specific binding, and thus the amount of the binding protein contained in the extract solution was evaluated.
Using the frozen insect cell Sf21 expressing the Gβ1, Myc-Gγ2, and Gαi1-His prepared in Example 19 (8), 10^7 cells were melted and suspended in 1.3 ml of an RBA buffer containing 1% Triton X-100 (75 mM Tris-HCl, 12.5 mM MgCl2, 2 mM EDTA, pH 7.4). […]
The inhibitory activity against the binding of the ^3H-labeled Compound 1 to the Gβ1γ2-Myc was considered to correspond to the activity of the compounds for binding to the Gβ1γ2-Myc. Thus, the activity of each of Compounds 1, 3, and 6 for binding to the Gβ1γ2-Myc was measured using the above extract solution. The activity of the ^3H-labeled Compound 1 for binding to the protein contained in the extract solution was measured by the PD10 method described in Example 15 (1). […]

Assay [3] has as its system HLF cell membrane. In words: Binding assay of 3H-labeled Compound 1 using HLF cell membrane. To be noted: FIG. 4. Set-up: species or system human. As to the method:
A cell membrane of a human liver-derived HLF cell was prepared as follows. HLF cells were approximately confluently cultured in a Dulbecco MEM medium containing 10% FCS in a cell culture dish having a diameter of 15 cm. The HLF cells cultured in 30 dishes were scraped by a cell scraper in the presence of an HMEE buffer (20 mM HEPES-KOH, 1 mM EDTA, 1 mM EGTA, and 2 mM MgCl2) to obtain about 30 ml of a cell suspension. The suspension was homogenized using a TEFLON (registered trademark) homogenizer (ice temperature, 1000 rpm, 15 stroke) and centrifuged at a low rate (1500 rpm, 5 minutes). […]
The binding assay of the ^3H-labeled Compound 1 on thus obtained cell membrane was carried out as follows. […] The filter plate was well washed with a TBS (20 mM Tris-HCl, 0.15 M NaCl, pH 7.4) containing 0.05% Twee-20 and sufficiently dried, 30 μl of a liquid scintillator (Microscinti 0, Packard) was added to the filter plate, and the ^3H count was measured by Topcount (Packard). […]
The inhibitory activity of each of the probe molecule compounds synthesized in Examples 2 and 7 to 10 against the binding of the ^3H-labeled Compound 1 to the HLF cell membrane was measured by the method described in Example 14 to confirm whether the probe compound could be bound to the binding protein like Compound 1. […]

The subject of assay [4] is Compound 6-induced Akt phosphorylation in differentiated 3T3L1 cell. Nature of the assay: Inhibition of Compound 6-induced Akt phosphorylation in differentiated 3T3L1 adipocytes. It is filed as cell-based. To be noted: 15 minutes pretreatment, FIG. 12. As to the method:
The inhibitory activity of the inhibitor TGX-115 specific to the phosphoinositide 3-kinase (PI3-kinase) β and δ against Compound 6-induced Akt phosphorylation was measured by using a differentiated 3T3L1 cell converted to a adipocyte as follows. […] The differentiated 3T3L1 cells were seeded in a Dulbecco MEM medium containing 10% FCS in a 96-well plate (Collagen type I coated plate, IWAKI, Product No. 4860-010) at a ratio of 4×10^4 cells/well, cultured at 37° C. for about 16 hours in the presence of 5% CO2 to achieve sufficient attachment, and the medium was removed by suction. […] Then, 10 μl of a 0.1% BSA/Dulbecco MEM medium containing 3 mM of Compound 6 was added thereto, and a treatment was carried out at 37° C. for 10 minutes in the presence of 5% CO2.

T1 sequence (P62873 whole entry): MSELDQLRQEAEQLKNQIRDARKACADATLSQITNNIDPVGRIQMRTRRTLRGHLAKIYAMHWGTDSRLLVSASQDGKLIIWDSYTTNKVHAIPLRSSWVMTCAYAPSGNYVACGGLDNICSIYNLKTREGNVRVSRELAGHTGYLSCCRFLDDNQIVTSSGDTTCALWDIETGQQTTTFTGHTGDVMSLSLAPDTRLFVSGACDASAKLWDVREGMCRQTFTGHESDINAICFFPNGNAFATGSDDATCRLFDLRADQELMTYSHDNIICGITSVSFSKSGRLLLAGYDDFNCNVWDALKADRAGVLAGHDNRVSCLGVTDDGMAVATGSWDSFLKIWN
T1 sequence (P59768 with tags, fused parts or gaps partner limits assumed): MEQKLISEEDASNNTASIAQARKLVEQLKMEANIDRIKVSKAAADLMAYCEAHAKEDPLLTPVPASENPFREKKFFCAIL

In assay [1], `COc1ccccc1[C@@H]1C2=C(CNC2=O)N[C@@H]2CCCC[C@H]2N1C(=O)CCc1nccs1` [Compound 3] gave a half-maximal effective concentration (EC50) of 14 nM. Besides, the “binding to Gβ1γ2-Myc (inhibition of 3H-labeled Compound 1 binding)” value in assay [2] is recorded as “could be bound to the Gβγ2-Myc”.
For the molecule `O=C1NCC2=C1[C@@H](c1csc3ccccc13)N(C(=O)CCc1ccccn1)[C@@H]1CCCC[C@H]1N2` [Compound 4], a half-maximal effect in assay [1] (EC50) was put at 6 nM.
`O=C1NCC2=C1[C@@H](c1cccc3ccoc13)N(C(=O)C1CC1)[C@@H]1CCCC[C@H]1N2` [Compound 5] had an EC50 in assay [1] of 1000 nM.
Regarding `NCCOCCOc1ccccc1[C@@H]1C2=C(CNC2=O)N[C@@H]2CCCC[C@H]2N1C(=O)CCc1ccccn1` [Compound 7], in assay [3], the “inhibitory activity against the binding of the 3H-labeled Compound 1 to the HLF cell membrane” value is “equal to Compound 2”.
Regarding `Cc1ccccc1Oc1cccc2c(=O)cc(N3CCOCC3)[nH]c12` [TGX-115], the “inhibition of Akt phosphorylation by Compound 6” value in assay [4] is listed as “clearly inhibited”.

In general, EC50 refers to the concentration at which the effect is half-maximal.
